The results in this text go back to patent US8383657B2, “Thiazolylidine urea and amide derivatives and methods of use thereof” (Abbott Laboratories, priority 2007, dated 2013).

What all share (type): cell-based
For one test, the target named is T1, human α7 NNR (Homo sapiens, UniProt P36544).
T1 construct: expressed in transfected cells; host or cells: Xenopus laevis oocytes injected with cRNA
In words: Two-electrode voltage-clamp in Xenopus laevis oocytes: potentiation of ACh-evoked α7 currents. The note with it: FIG. 1A. How it is done: (i) Two-Electrode Voltage-Clamp in Xenopus laevis Oocytes.
X. laevis oocytes were prepared for electrophysiological experiments as described in the literature (see for example, Briggs, C. A., Mckenna, D. G., and Piattina-kaplan, M., Human α7 nicotinic acetylcholine receptor responses to novel ligands, Neuropharmacology, 1995, 34: 583-590; Briggs, C. A., and Mckenna, D. G., Activation and inhibition of the human α7 nicotinic acetylcholine receptor by agonists, Neuropharmacology, 1998, 37: 1095-1102). […] Responses were measured by two-electrode voltage clamp using parallel oocyte electrophysiology test station (Abbott, Abbott Park, Ill.) (see for example, Trumbull, J. D., Maslana, E. S., McKenna, D. G., Nemcek, T. A., Niforatos, W., Pan, J. Y., Parihar, A. S., Shieh, C. C., Wilkins, J. A., Briggs, C. A., and Bertrand, D., High throughput electrophysiology using a fully automated, multiplexed recording system, Receptors Channels, 2003, 9: 19-28). […] The data were expressed as percentage potentiation over the response to 0.1 mM ACh alone. […]

For test [1], the target named is T2, α7 NNRs (Homo sapiens, UniProt P36544).
T2 construct: using cells natively expressing α7 NNRs; host or cells: IMR-32 neuroblastoma cells
T2 sequence (P36544 23-502): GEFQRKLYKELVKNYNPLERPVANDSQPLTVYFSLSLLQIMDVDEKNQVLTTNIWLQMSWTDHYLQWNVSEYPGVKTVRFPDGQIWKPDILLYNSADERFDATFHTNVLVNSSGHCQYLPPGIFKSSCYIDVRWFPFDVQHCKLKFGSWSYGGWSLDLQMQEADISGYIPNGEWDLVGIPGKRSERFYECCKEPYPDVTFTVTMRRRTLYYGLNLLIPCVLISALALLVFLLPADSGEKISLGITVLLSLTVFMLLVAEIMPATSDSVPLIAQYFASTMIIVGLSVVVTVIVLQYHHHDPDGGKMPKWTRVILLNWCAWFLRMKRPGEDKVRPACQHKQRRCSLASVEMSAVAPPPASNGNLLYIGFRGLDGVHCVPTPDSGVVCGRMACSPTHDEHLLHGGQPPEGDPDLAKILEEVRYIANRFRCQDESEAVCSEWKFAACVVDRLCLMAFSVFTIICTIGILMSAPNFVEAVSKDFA
In words: High-throughput calcium flux (FLIPR) assay using IMR-32 cells expressing endogenous α7 NNRs. The arrangement: Emax: dose or concentration left out as unconfirmed.
Method: (ii) High-Throughput Calcium Flux Assays Using Cells Expressing Endogenous α7 NNRs
IMR-32 neuroblastoma cells (ATCC) were grown to confluency in 162 cm^2 tissue culture flasks in minimum essential media supplemented with 10% FBS and 1 mM sodium pyruvate, 0.1 mM non-essential amino acids and 1% antibiotic-antimycotic. The cells were then dissociated using cell dissociation buffer and 40 μl of 3.5×10^5 cells/ml cell suspension was plated (about 15,000 cells/well) into black plates with clear bottom and maintained for 48 hours in a tissue culture incubator at 37° C. under an atmosphere of 5% CO2: 95% air. […] Calcium flux was measured using calcium-3 assay kit (Molecular Devices, Sunnyvale, Calif.) or fluo-4. A stock solution of the dye was prepared by dissolving each vial supplied by the vendor in Hank's balanced salt solution buffer (HBSS) containing 20 mM HEPES. The stock solution was diluted 1:20 using the same buffer before use. After removing the growth media, the cells were loaded with 45 μl of the dye and incubated at room temperature for three hours. Fluorescence measurements were read simultaneously from all the wells by a Fluorometric Imaging Plate Reader (FLIPR) at an excitation wavelength of 480 nm and an emission wavelength of 520 nm. Baseline fluorescence was measured for the first 10 seconds at which 5× concentrations of modulator/test compounds were added to the cell plate and incubated for three minutes. The fluorescence intensity was captured every second for the first 1 minute followed by every 5 seconds for an additional 2 minutes. This procedure was followed by 20 μl of 4× concentration of agonist and readings were taken for a period of three minutes as described above. […] The concentration dependence of changes fluorescence responses was fitted by nonlinear regression analysis (GraphPad Prism, San Diego, Calif.) to obtain EC50 values.
PAMs were identified by measuring fluorescence changes to intracellular calcium in a fluorometric plate reader in the presence of selective α7 NNR agonists using cells natively expressing α7 NNRs. […]

For test [2], the target named is T3, α7 NNRs (Rattus norvegicus, UniProt Q05941).
T3 construct: host or cells: PC-12 rat pheochromocytoma cells
T3 sequence (Q05941 23-502): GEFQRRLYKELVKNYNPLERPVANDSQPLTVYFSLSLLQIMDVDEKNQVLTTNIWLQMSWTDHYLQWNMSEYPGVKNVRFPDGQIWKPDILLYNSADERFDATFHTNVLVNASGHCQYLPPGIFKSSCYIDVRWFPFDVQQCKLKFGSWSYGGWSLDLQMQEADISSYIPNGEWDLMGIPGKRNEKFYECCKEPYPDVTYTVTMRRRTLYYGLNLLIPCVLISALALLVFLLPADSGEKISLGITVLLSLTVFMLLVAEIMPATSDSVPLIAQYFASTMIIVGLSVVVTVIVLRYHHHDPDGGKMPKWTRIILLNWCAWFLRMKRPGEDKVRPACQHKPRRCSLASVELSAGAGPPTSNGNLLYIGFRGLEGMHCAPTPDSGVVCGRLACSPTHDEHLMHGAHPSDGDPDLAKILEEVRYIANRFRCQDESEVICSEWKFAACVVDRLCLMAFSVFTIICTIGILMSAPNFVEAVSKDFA
Kind of test: High-throughput ERK phosphorylation assay (in-cell western) using PC-12 cells expressing endogenous α7 NNRs. On the procedure:
(iii) High-Throughput ERK Phosphorylation Assays Using Cells Expressing Endogenous α7 NNRs
Rat pheochromocytoma (PC-12) cells (ATCC, Manassas, Va.) were cultured and maintained in F-12K media supplemented with 15% horse serum, 2.5% fetal calf serum, and 2 mM L-glutamine in poly-D lysine coated dishes at 37° C. and 5% CO2. Cells were plated in black-walled clear bottom 96-well Biocoat™ plates coated with poly-D-lysine (BD Biosciences, Bedford, Mass.) and grown for 2-3 days. Afterward, the culture media is replaced with serum-free media to starve cells overnight. On the day of the assay, cell media was removed and cells (60-80% confluent) were treated with agonist and/or modulator in Dulbecco's phosphate buffer saline (D-PBS) (with Ca^2+, Mg^2+, and 1 mg/ml D-glucose), as indicated in the result section.
PC-12 cells are treated for 10 minutes at 37° C. with test PAM compounds and then challenged with a selective α7 agonist for 5 minutes at 37° C. in a final volume of 100 μl/well, unless otherwise indicated. After treatment, media was discarded and adherent cells were immediately fixed in the presence of 150 μl/well of 3.7% formaldehyde/phosphate-buffered saline for 30-60 minutes at room temperature. […] Well intensities were quantitated and phospho-ERK signals were normalized to total ERK signals by the Odyssey software. […]

T1 sequence (P36544 23-502): as the sequence (P36544 23-502) above

For orientation: EC50 means the midpoint of the concentration-response curve. Consider `Cc1cn(-c2ccc(C(F)(F)F)cc2)/c(=N/C(=O)N2CCCC2)s1` [Example 18, N-[(2Z)-5-methyl-3-[4-(trifluoromethyl)phenyl]-1,3-thiazol-2(3H)-ylidene]pyrrolidine-1-carboxamide], for which the EC50 on human α7 NNR (0.1 mM ACh, oocytes injected with human α7 NNR cRNA, read-out: EC50 value, potentiating 0.1 mM ACh-evoked α7 currents in oocytes) turned out to be 4 µM; at α7 NNRs [1] (FIG. 1B, IMR-32 cells, agonist 4-(5-phenyl-[1,3,4]oxadiazol-2-yl)-1,4-diaza-bicyclo[3.2.2]nonane at 10 μM, read-out: EC50 value, calcium fluorescence response) it was 3.4 µM; on α7 NNRs [2] (FIG. 1C, PC-12 cells, α7 selective agonist PNU-282987), 1.4 µM. Further, the degree of potentiation on human α7 NNR (percentage potentiation over the response to 0.1 mM ACh alone) is 300%. The Emax was determined as 110% on α7 NNRs [1] (IMR-32, read-out: maximal effects, normalized change in fluorescence) and 111% at α7 NNRs [2] (PC-12, read-out: maximal efficacy).
As for `CCN1C[C@]2(COC(=O)c3ccccc3N3C(=O)C[C@H](C)C3=O)CC[C@H](OC)[C@@]34[C@@H]5C[C@H]6[C@H](OC)[C@@H]5[C@](O)(C[C@@H]6OC)[C@@](O)([C@@H](OC)[C@H]23)[C@@H]14` [methyllycaconitine, reference compound], the “effect on calcium response to agonist plus modulator” value on α7 NNRs [1] (IMR-32 cells, α7 selective antagonist) was “abolishes response”.
